According to US20100035878A1, “INHIBITORS OF C-JUN N-TERMINAL KINASES FOR THE TREATMENT OF NEURODEGENERATIVE DISORDERS RELATING TO APOPTOSIS AND/OR INFLAMMATION” (EISAI R & D MANAGEMENT CO., LTD., priority 2005, published 2010):
pIC50: −log10 of the molar value.

Target: JNK3 (Homo sapiens, UniProt P53779)
Assay: JNK3 SPA assay (phosphorylation of GST-c-Jun)
Type: biochemical
Settings: GST-c-Jun substrate, [γ-33P] ATP, 30 minutes at room temperature
Procedure: JNK1, JNK2, JNK3-SPA Assay
• 1. Compound is dissolved in DMSO to a convenient concentration and this is diluted in 10% DMSO to a five times concentrate of the desired starting concentration (frequently 1:100). • 2. 10 μl of 500 mM EDTA is added to alternative wells of the Opti-plate row, which will receive kinase reaction plus DMSO. This creates the negative control. • 3. For the JNK2 and JNK3 assay, compounds are prepared in six 2-fold dilutions with water and each concentration is tested in duplicate. For the JNK1 assay compounds are prepared in four 5-fold dilutions with water which are tested in triplicate. Controls are treated identically. • 4. 20 μl per well of each compound concentration is transferred to an Opti-plate, in duplicate. • 5. 30 μl (JNK2/3 SPA) or 50 μl (JNK1 SPA) of substrate solution (25 mM HEPES pH 7.5, 10 mM magnesium acetate with 3.33 µM ATP (JNK2/3) or 2 µM ATP (JNK1), approximately 7.5 kBq [γ-^33P] ATP, GST-c-Jun, in water) is added to each well. • 6. 50 μl (JNK2/3 SPA) or 30 μl (JNK1 SPA) of kinase solution (JNK in 25 mM HEPES pH 7.5, 10 mM Mg Acetate) is added to each well.
• 7. The plate is incubated for 30 minutes at room temperature. • 8. 100 μl of bead/stop solution is added to each well (5 mg/ml glutathione-PVT-SPA beads, 40 mM ATP in PBS). • 9. Plates are sealed and incubated for 30 minutes at room temperature, centrifuged for 10 minutes at 2500 g and counted. • 10. The IC50 values are calculated as the concentration of the compound being tested at which the phosphorylation of c-Jun is decreased to 50% of the control value.

JNK3, sequence (P53779 whole entry): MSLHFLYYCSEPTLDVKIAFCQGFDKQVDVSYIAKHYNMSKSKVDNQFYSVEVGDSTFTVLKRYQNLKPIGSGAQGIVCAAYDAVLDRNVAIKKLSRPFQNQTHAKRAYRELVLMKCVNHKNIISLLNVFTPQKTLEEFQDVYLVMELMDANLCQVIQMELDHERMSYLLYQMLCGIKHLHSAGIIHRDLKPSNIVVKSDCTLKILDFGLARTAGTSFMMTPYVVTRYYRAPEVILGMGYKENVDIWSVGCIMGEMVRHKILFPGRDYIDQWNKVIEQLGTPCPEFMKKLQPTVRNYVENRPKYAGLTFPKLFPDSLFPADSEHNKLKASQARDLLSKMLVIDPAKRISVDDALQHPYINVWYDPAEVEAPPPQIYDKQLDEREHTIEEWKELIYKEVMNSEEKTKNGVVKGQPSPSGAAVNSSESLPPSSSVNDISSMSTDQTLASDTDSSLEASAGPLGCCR

Structure (SMILES)	pIC50
Cn1cc(-c2c[nH]c3ncc(CC4=CCCCC4)cc23)cn1	> 6.70
Cn1cc(-c2c[nH]c3ncc(CCCCO)cc23)cn1	> 6.00
Cn1cc(-c2c[nH]c3ncc(CC4CCC(N5CCOCC5)CC4)cc23)cn1 (centres unmarked)	> 6.70
COc1cnc2[nH]cc(-c3cn[nH]c3)c2c1	> 6.00
O=C(O)c1ccccc1C(=O)Nc1cnc2[nH]cc(-c3cncs3)c2c1	> 6.70
c1ccc(Sc2cnc3[nH]cc(-c4cn[nH]c4)c3c2)cc1	> 6.70
Cn1cc(-c2c[nH]c3ncc(CC4CCC(=O)CC4)cc23)cn1	> 6.70
CCCCCCCc1cnc2[nH]cc(-c3cnn(C)c3)c2c1	> 7.00
CCCCS(=O)(=O)c1cnc2[nH]cc(-c3cn[nH]c3)c2c1	> 6.00
Oc1cnc2[nH]cc(-c3cn[nH]c3)c2c1	> 5.70
CN(C)C1CCC(Cc2cnc3[nH]cc(-c4cnn(C)c4)c3c2)CC1 (centres unmarked)	> 6.70
CC(C)Cc1cnc2[nH]cc(-c3csc(C(=O)N4CCN(C)CC4)n3)c2c1	> 7.00
CCCCCc1cnc2[nH]cc(-c3csc(C(=O)N4CCCCC4)n3)c2c1	> 6.70
CC(C)(C)OC(=O)Nc1cnc2[nH]cc(-c3cn[nH]c3)c2c1	> 6.00
CC(C)Cc1cnc2[nH]cc(-c3cnn(CCN4CCOCC4)c3)c2c1	> 6.30
Cn1cc(-c2c[nH]c3ncc(CC4CCC(O)CC4)cc23)cn1 (centres unmarked)	> 7.00
[O-][S+](c1ccccc1)c1cnc2[nH]cc(-c3cn[nH]c3)c2c1 (centres unmarked)	> 6.30

Structure (SMILES)	pIC50
Nc1cnc2[nH]cc(-c3cn[nH]c3)c2c1	> 6.30
O=C(Nc1cnc2[nH]cc(-c3ccoc3)c2c1)c1ccc(F)cc1	> 6.30
CCCC[S+]([O-])c1cnc2[nH]cc(-c3cn[nH]c3)c2c1 (centres unmarked)	> 6.00
CC(C)Cc1cnc2[nH]cc(-c3csc(C(=O)N4CCOCC4)n3)c2c1	> 6.70
CCCCCCCCc1cnc2[nH]cc(-c3cnn(C)c3)c2c1	> 7.00
CC(C)Cc1cnc2[nH]cc(-c3csc(C4CCN(C)CC4)n3)c2c1	> 6.00
CN1CCN(C2CCC(Cc3cnc4[nH]cc(-c5cnn(C)c5)c4c3)CC2)CC1 (centres unmarked)	> 6.70
CC(C)Cc1cnc2[nH]cc(-c3csc(C(=O)N4CCCCC4)n3)c2c1	> 6.70
Cn1cc(-c2c[nH]c3ncc(CC4CCCCC4)cc23)cn1	> 7.00
CCCCCc1cnc2[nH]cc(-c3csc(C(=O)N4CCN(C)CC4)n3)c2c1	> 6.70
Cn1cc(-c2c[nH]c3ncc(CC4CCCC4)cc23)cn1	> 7.00
Cn1cc(-c2c[nH]c3ncc(CN4CCCCC4)cc23)cn1	> 6.00
CCCCCc1cnc2[nH]cc(-c3csc(C(=O)N4CCOCC4)n3)c2c1	> 6.30
Cn1cc(-c2c[nH]c3ncc(CCC4CCCCC4)cc23)cn1	> 6.70
CCCCCc1cnc2[nH]cc(-c3csc(C(=O)N(C)C)n3)c2c1	> 6.30
Cn1cc(-c2c[nH]c3ncc(CC4CCC4)cc23)cn1	> 7.00

Further lines, results first:

pIC50	Structure (SMILES)
> 6.30	CCCCCCOc1cnc2[nH]cc(-c3cnn(C)c3)c2c1
> 6.30	Cn1cc(-c2c[nH]c3ncc(CN4CCc5ccccc54)cc23)cn1
> 6.70	Cn1cc(-c2c[nH]c3ncc(CC4=CCCC4)cc23)cn1
> 6.30	C#CCOc1cnc2[nH]cc(-c3cnn(C)c3)c2c1
> 6.30	CN(C)c1ccc(Oc2cnc3[nH]cc(-c4cnn(C)c4)c3c2)cc1
> 6.30	Cc1ccc(Oc2cnc3[nH]cc(-c4cnn(C)c4)c3c2)cc1
> 6.30	Cn1cc(-c2c[nH]c3ncc(OCC4CCCCC4)cc23)cn1
> 7.00	CCCc1cnc2[nH]cc(-c3cnn(C)c3)c2c1
> 5.70	COCCOc1cnc2[nH]cc(-c3cnn(C)c3)c2c1
> 6.00	Cc1cccc(Oc2cnc3[nH]cc(-c4cnn(C)c4)c3c2)c1
> 6.30	CCCCOc1cnc2[nH]cc(-c3cnn(C)c3)c2c1
> 6.70	CCCCCOc1cnc2[nH]cc(-c3cnn(C)c3)c2c1
> 6.70	CCCCCc1cnc2[nH]cc(-c3cnn(C)c3)c2c1
> 6.30	Cn1cc(-c2c[nH]c3ncc(OCCc4ccccc4)cc23)cn1
> 6.30	Cn1cc(-c2c[nH]c3ncc(Oc4ccccc4)cc23)cn1
> 6.30	Cc1ccccc1Oc1cnc2[nH]cc(-c3cnn(C)c3)c2c1

pIC50	Structure (SMILES)
> 6.00	Cn1cc(-c2c[nH]c3ncc(Oc4ccc(F)cc4)cc23)cn1
> 6.30	CCOc1cnc2[nH]cc(-c3cnn(C)c3)c2c1
> 7.00	CCCCSc1cnc2[nH]cc(-c3cnn(C)c3)c2c1
> 6.30	Cn1cc(-c2c[nH]c3ncc(Cn4ccc5ccccc54)cc23)cn1
> 6.70	Cn1cc(-c2c[nH]c3ncc(OC4CCCC4)cc23)cn1
> 6.70	CC(C)CCCc1cnc2[nH]cc(-c3cnn(C)c3)c2c1
> 6.70	CN(C)c1cccc(Sc2cnc3[nH]cc(-c4cnn(C)c4)c3c2)c1
> 6.30	Cn1cc(-c2c[nH]c3ncc(OCc4ccccc4)cc23)cn1
> 6.70	Cn1cc(-c2c[nH]c3ncc(CC4CCN(Cc5ccccc5)CC4)cc23)cn1
> 6.30	Cn1cc(-c2c[nH]c3ncc(OCC4CC4)cc23)cn1
> 7.00	CC(C)Cc1cnc2[nH]cc(-c3cnn(C)c3)c2c1
> 6.30	Cn1cc(-c2c[nH]c3ncc(CCC(C)(C)C)cc23)cn1
> 5.70	CCOC(=O)COc1cnc2[nH]cc(-c3cnn(C)c3)c2c1
> 6.30	C=CCOc1cnc2[nH]cc(-c3cnn(C)c3)c2c1
> 6.30	CCCOc1cnc2[nH]cc(-c3cnn(C)c3)c2c1
> 6.70	Cn1cc(-c2c[nH]c3ncc(Cc4ccccc4)cc23)cn1
